Test results reported in ChEMBL document CHEMBL5252643, “Jozibrevine D from Ancistrocladus ileboensis, the fifth alkaloid in a series of six possible atropo-diastereomeric naphthylisoquinoline dimers, showing antiparasitic and antileukemic activities” (Bioorg Med Chem Lett, 2023).

Legend:
CCRF-CEM = assay: Cytotoxicity against human CCRF-CEM cells; type: functional, cell-based
ADR5000 cell line = assay: Cytotoxicity against multidrug resistant human CEM/ADR5000 cells; type: functional, cell-based
[1] = Selectivity ratio of IC50 for human CEM/ADR5000 cells to IC50 for human CCRF-CEM cells; type: functional
Plasmodium falciparum = assay: Antiplasmodial activity against Plasmodium falciparum NF54; type: functional, organism-based
Trypanosoma cruzi = assay: Antitrypanosomal activity against Trypanosoma cruzi; type: functional, organism-based
[2] = tested on: Trypanosoma brucei rhodesiense; assay: Antitrypanosomal activity against Trypanosoma brucei rhodesiense; type: functional, organism-based
Leishmania donovani = assay: Antileishmanial activity against Leishmania donovani; type: functional, organism-based
[3] = Cytotoxicity against rat L6 cells assessed as reduction in cell viability by resazurin dye based assay; type: toxicity
[4] = Selectivity index, ratio of IC50 for rat L6 cells to IC50 for Plasmodium falciparum NF54; type: toxicity; settings: L6 cells versus Plasmodium falciparum NF54, read-out: Ratio IC50

IC50 (Plasmodium falciparum) [µM] | IC50 (Trypanosoma cruzi) [µM] | IC50 [2] [µM] | IC50 (Leishmania donovani) [µM] | SMILES | IC50 (CCRF-CEM) [µM] | IC50 (ADR5000 cell line) [µM] | Ratio IC50 [1] | IC50 [3] [µM] | selectivity ratio [4]
– | – | – | – | COc1cccc2c(-c3ccc4c(c3O)[C@@H](C)N[C@H](C)C4)c(C)c(-c3c(C)c(-c4ccc5c(c4O)[C@@H](C)N[C@H](C)C5)c4cccc(OC)c4c3O)c(O)c12 (stereo in doubt; 4d) | 5.35 | 7.59 | 1.42 | – | –
0.137 | 22.2 | 0.527 | 105 | COc1cccc2c(-c3ccc4c(c3O)[C@@H](C)N[C@H](C)C4)c(C)c(-c3c(C)c(-c4ccc5c(c4O)[C@@H](C)N[C@H](C)C5)c4cccc(OC)c4c3O)c(O)c12 (stereo in doubt; 4e) | 11.5 | 16.6 | 1.45 | 6.22 | 45.4
